Source: patent US20210348164A1, “ENDOGENOUS CYTOPLASMIC ALU COMPLEMENTARY DNA IN AGE-RELATED MACULAR DEGENERATION” (University of Virginia Patent Foundation, priority 2018, published 2021)

Tested on: L1 ORF2 reverse transcriptase activity
Experiment: Alu cDNA formation in Oryzomys RPE cells with enforced L1 ORF2 expression (Alu-specific qPCR of cytoplasmic fractions)
Type: cell-based, rat L1 ORF2 in Oryzomys palustris RPE cells
Conditions: high-dose
Procedure: Subretinal and intravitreous injections. Subretinal injections (1 μl for mice, 3 μl for rat) or intravitreous injections (0.5 μl for mice, 2 μl for rat) in mice or rat were performed using a 35-gauge needle (Ito Co. Fuji, Japan). In vivo transfection of Alu RNA or mutant Alu RNA (3.6-300 ng per eye); Alu complementary DNA (cDNA; 0.0036-90 ng per eye); Alu reverse sequence cDNA (3.6-90 ng per eye); or 7SL cDNA (3.6-90 ng per eye) was performed using 10% NEUROPORTER™ transfection reagent (Genlantis, San Diego, Calif., United States of America) as previously described (Kaneko et al., 2011; Tarallo et al., 2012). 3TC, TM-3TC, Cpep-3TC, Cpep, PA-4 3TC, EFV, DLV, or NVP (50 μM/1 μl or 500 μM/1 μl) were administered by intravitreous injection (Mandal et al., 2011; Nasrolahi et al., 2013). […]
Alu cDNA detection by real-time PCR. […] Then samples were directly amplified by real-time quantitative PCR (7900 HT Fast Real-Time PCR system, Applied Biosystems, Foster City, Calif., United States of America) with Power SYBR Green Master Mix. […] The copy number of Alu cDNA was calculated using standard curves that were obtained using serial dilutions of the plasmids containing an Alu Y sequence. […]

O=C1Nc2ccc(Cl)cc2[C@@](C#CC2CC2)(C(F)(F)F)O1 [EFV, efavirenz]
Formation of Alu cDNA following Alu RNA transfection: inhibited
